Data: patent US10597388B2, “Pyridazinone herbicides” (FMC CORPORATION, priority 2014, dated 2020)

Columns and labels:
Assay type in all cases: in vivo
[1] = system: barnyardgrass (Echinochloa crus-galli); assay: Test A greenhouse herbicide test, pre- and postemergence
Text: (§1) Seeds of plant species selected from barnyardgrass (Echinochloa crus-galli), kochia (Kochia scoparia), ragweed (common ragweed, Ambrosia elatior), ryegrass, Italian (Italian ryegrass, Lolium multiflorum), crabgrass, large (large crabgrass, Digitaria sanguinalis), foxtail, giant (giant foxtail, Setaria faberii), momingglory (Ipomoea spp.), pigweed (Amaranthus retroflexus), velvetleaf (Abutilon theophrasti), wheat (Triticum aestivum), and corn (Zea mays) were planted into a blend of loam soil and sand and treated preemergence with a directed soil spray using test chemicals formulated in a non-phytotoxic solvent mixture which included a surfactant.
(§2) At the same time, plants selected from these crop and weed species and also blackgrass (Alopecurus myosuroides), and galium (catchweed bedstraw, Galium aparine) were planted in pots containing the same blend of loam soil and sand and treated with postemergence applications of test chemicals formulated in the same manner. Plants ranged in height from 2 to 10 cm and were in the one- to two-leaf stage for the postemergence treatment. Treated plants and untreated controls were maintained in a greenhouse for approximately 10 d, after which time all treated plants were compared to untreated controls and visually evaluated for injury. Plant response ratings, summarized in Table A, are based on a 0 to 100 scale where 0 is no effect and 100 is complete control. A dash (-) response means no test result.

corn (Zea mays) = assay: as above; conditions: Postemergence; for Plant response rating, Corn: 125 g ai/ha; for Corn plant response rating: 500 g ai/ha, 0 to 100 scale, 0 is no effect, 100 is complete control
Text: as §1, §2

[2] = system: foxtail, giant (giant foxtail, Setaria faberii); assay: as above
Text: as §1, §2

kochia (Kochia scoparia) = assay: as above
Text: as §1, §2

[3] = system: pigweed (Amaranthus retroflexus); assay: as above
Text: as §1, §2

[4] = system: ragweed (common ragweed, Ambrosia elatior); assay: as above
Text: as §1, §2

[5] = system: ryegrass, Italian (Italian ryegrass, Lolium multiflorum); assay: as above
Text: as §1, §2

[6] = system: wheat (Triticum aestivum); assay: as above; conditions: Postemergence; for Plant response rating, Wheat: 125 g ai/ha, 0 to 100 scale where 0 is no effect and 100 is complete control; for Wheat plant response rating: 500 g ai/ha, 0 to 100 scale, 0 is no effect, 100 is complete control
Text: as §1, §2

[7] = system: blackgrass (Alopecurus myosuroides); assay: Test A greenhouse herbicide test, postemergence; conditions: for Plant response rating, Blackgrass: 125 g ai/ha; for Blackgrass plant response rating: 500 g ai/ha, 0 to 100 scale, 0 is no effect, 100 is complete control
Text: as §2

[8] = system: galium (catchweed bedstraw, Galium aparine); assay: Test A greenhouse herbicide test, postemergence; conditions: for Plant response rating, Galium: 125 g ai/ha; for Galium plant response rating: 500 g ai/ha, 0 to 100 scale, 0 is no effect, 100 is complete control
Text: as §2

[9] = Postemergence, 125 g ai/ha, visual rating after approx. 10 d, 0 to 100 scale (0 no effect, 100 complete control)
[10] = Postemergence, 500 g ai/ha, 0 to 100 scale, 0 is no effect, 100 is complete control
[11] = Preemergence, 125 g ai/ha, 0 to 100 scale where 0 is no effect and 100 is complete control
[12] = Preemergence, 500 g ai/ha, 0 to 100 scale, 0 no effect, 100 complete control
[13] = visual rating after approx. 10 d, 0 to 100 scale (0 no effect, 100 complete control)
[14] = Postemergence, 125 g ai/ha, 0 to 100 scale where 0 is no effect and 100 is complete control
[15] = 0 to 100 scale where 0 is no effect and 100 is complete control
[16] = Preemergence, 500 g ai/ha, 0 to 100 scale where 0 is no effect and 100 is complete control

Row | Compound | Barnyardgrass plant response rating [1, 10] | Barnyardgrass plant response rating [1, 11] | Plant response rating, Barnyardgrass [1, 12] | Corn plant response rating (corn (Zea mays)) | Foxtail, Giant plant response rating [2, 10] | Foxtail, Giant plant response rating [2, 11] | Plant response rating, Foxtail, Giant [2, 12] | Kochia plant response rating (kochia (Kochia scoparia); [10]) | Kochia plant response rating (kochia (Kochia scoparia); [11]) | Pigweed plant response rating [3, 10] | Pigweed plant response rating [3, 11] | Ragweed plant response rating [4, 10] | Ragweed plant response rating [4, 11] | Plant response rating, Ryegrass, Italian [5, 14] | Ryegrass, Italian plant response rating [5, 10] | Ryegrass, Italian plant response rating [5, 11] | Plant response rating, Wheat [6] | Wheat plant response rating [6] | Blackgrass plant response rating [7] | Galium plant response rating [8] | other results
1 | COc1nn(C)c(=O)c(-c2c(C)ccc3ccc(C)cc23)c1O [Compound 30] | 30 | 0 | 10 | 0 | 60 | 0 | 60 | 80 | 0 | 90 | 80 | 70 | 0 | 70 | 60 | 30 | 10 | 10 | 60 | 90 | Plant response rating, Barnyardgrass [1, 9]: 0; Plant response rating, Corn (corn (Zea mays); [13]): 0; Plant response rating, Foxtail, Giant [2, 9]: 0; Plant response rating, Kochia (kochia (Kochia scoparia); [9]): 60; Plant response rating, Kochia (kochia (Kochia scoparia); [12]): 40; Plant response rating, Pigweed [3, 9]: 90; Plant response rating, Pigweed [3, 12]: 90; Plant response rating, Ragweed [4, 9]: 40; Plant response rating, Ragweed [4, 12]: 70; Plant response rating, Ryegrass, Italian [5, 12]: 50; Plant response rating, Blackgrass [7, 13]: 20; Plant response rating, Galium [8, 13]: 70
2 | CCc1ccc2ccccc2c1-c1c(OC(=O)C2CC2)c(C)nn(C)c1=O [Compound 38] | 40 | 0 | 10 | 10 | 50 | 0 | 40 | 80 | 40 | 50 | 0 | 70 | 0 | 0 | 50 | 40 | 10 | 20 | 60 | 100 | Plant response rating, Barnyardgrass [1, 9]: 0; Plant response rating, Corn (corn (Zea mays); [13]): 0; Plant response rating, Foxtail, Giant [2, 9]: 0; Plant response rating, Kochia (kochia (Kochia scoparia); [9]): 30; Plant response rating, Kochia (kochia (Kochia scoparia); [12]): 40; Plant response rating, Pigweed [3, 9]: 50; Plant response rating, Pigweed [3, 12]: 80; Plant response rating, Ragweed [4, 9]: 40; Plant response rating, Ragweed [4, 12]: 70; Plant response rating, Ryegrass, Italian [5, 12]: 70; Plant response rating, Blackgrass [7, 13]: 50; Plant response rating, Galium [8, 13]: 80
3 | Cc1ccc2oc(C)c(-c3c(O)c(-c4ccccc4)nn(C)c3=O)c2c1 [Compound 61] | 0 | 0 | 0 | 0 | 0 | 0 | 0 | 0 | 0 | 0 | 0 | 0 | 0 | 0 | 0 | 0 | 0 | 0 | 0 | 0 | Plant response rating, Barnyardgrass [1, 14]: 0; Plant response rating, Corn (corn (Zea mays); [15]): 0; Plant response rating, Foxtail, Giant [2, 14]: 0; Plant response rating, Kochia (kochia (Kochia scoparia); [14]): 0; Plant response rating, Kochia (kochia (Kochia scoparia); [12]): 0; Plant response rating, Pigweed [3, 14]: 0; Plant response rating, Pigweed [3, 12]: 0; Plant response rating, Ragweed [4, 14]: 0; Plant response rating, Ragweed [4, 12]: 0; Plant response rating, Ryegrass, Italian [5, 12]: 0; Plant response rating, Blackgrass [7, 15]: 0; Plant response rating, Galium [8, 15]: 0
4 | CCc1nn(CC)c(=O)c(-c2c(C)oc3ccc(C)cc23)c1O [Compound 64] | 0 | 0 | 0 | 0 | 0 | 0 | 0 | 0 | 0 | 0 | 0 | 0 | 0 | 0 | 0 | 0 | 0 | 0 | 0 | 0 | Plant response rating, Barnyardgrass [1, 14]: 0; Plant response rating, Corn (corn (Zea mays); [15]): 0; Plant response rating, Foxtail, Giant [2, 14]: 0; Plant response rating, Kochia (kochia (Kochia scoparia); [14]): 0; Plant response rating, Kochia (kochia (Kochia scoparia); [12]): 0; Plant response rating, Pigweed [3, 14]: 0; Plant response rating, Pigweed [3, 12]: 0; Plant response rating, Ragweed [4, 14]: 0; Plant response rating, Ragweed [4, 12]: 0; Plant response rating, Ryegrass, Italian [5, 12]: 0; Plant response rating, Blackgrass [7, 15]: 0; Plant response rating, Galium [8, 15]: 0
5 | Cc1nn(C)c(=O)c(-c2cccc3ccc(I)cc23)c1O [Compound 70] | 10 | 0 | 30 | 0 | 25 | 0 |  | 60 | 10 | 80 | 60 | 70 | 70 | 60 | 80 | 60 | 0 | 0 | 30 | 90 | Plant response rating, Barnyardgrass [1, 14]: 0; Plant response rating, Corn (corn (Zea mays); [15]): 0; Plant response rating, Foxtail, Giant [2, 14]: 30; Plant response rating, Foxtail, Giant [2, 16]: 30; Plant response rating, Kochia (kochia (Kochia scoparia); [14]): 50; Plant response rating, Kochia (kochia (Kochia scoparia); [16]): 40; Plant response rating, Pigweed [3, 14]: 80; Plant response rating, Pigweed [3, 16]: 100; Plant response rating, Ragweed [4, 14]: 40; Plant response rating, Ragweed [4, 16]: 80; Plant response rating, Ryegrass, Italian [5, 16]: 90; Plant response rating, Blackgrass [7, 15]: 10; Plant response rating, Galium [8, 15]: 70
6 | Cc1nn(C)c(=O)c(-c2cccc3ccc(C4CC4)cc23)c1O [Compound 71] | 20 | 0 | 20 | 20 | 20 | 0 |  | 70 | 0 | 80 | 30 | 70 | 0 | 30 | 90 | 0 | 0 | 20 | 40 | 90 | Plant response rating, Barnyardgrass [1, 14]: 0; Plant response rating, Corn (corn (Zea mays); [15]): 0; Plant response rating, Foxtail, Giant [2, 14]: 0; Plant response rating, Foxtail, Giant [2, 16]: 50; Plant response rating, Kochia (kochia (Kochia scoparia); [14]): 50; Plant response rating, Kochia (kochia (Kochia scoparia); [16]): 20; Plant response rating, Pigweed [3, 14]: 70; Plant response rating, Pigweed [3, 16]: 100; Plant response rating, Ragweed [4, 14]: 70; Plant response rating, Ragweed [4, 16]: 20; Plant response rating, Ryegrass, Italian [5, 16]: 70; Plant response rating, Blackgrass [7, 15]: 30; Plant response rating, Galium [8, 15]: 70
